Experimental data as given in the SangsterLogP compilation.

Settings: not given

Row | Compound | logP
1 | CNC(=O)c1ccccc1C(=O)c1ccccc1 | 2.09
2 | N#Cc1sc2c(=O)c3ccccc3c(=O)c=2sc1C#N | 2.84
3 | O=C(CCn1ccnc1[N+](=O)[O-])NCCO | -1.08
4 | CCN(CC)c1c([N+](=O)[O-])cc(C(F)(F)F)c(N)c1[N+](=O)[O-] | 4.3
5 | c1ccc2c(c1)CCCC2 | 3.49
6 | Cn1c(N)nc2ccccc21 | 0.95
7 | NC(=O)C(Cl)Cl | 0.19
8 | CC1=C(N2CC2)C(=O)c2ccc(CCOC(N)=O)c(N3CC3)c2C1=O | 0.16
9 | FN(F)C(c1ccccc1)(c1ccccc1)c1ccccc1 | 3.73
10 | BrCCCBr | 2.37
11 | CCc1cccc(C)c1NC(=O)OC(C)C | 2.52
12 | CN(C)C1=CC(=O)c2ccccc2C1=O | 1.9
13 | CC(=O)Nc1ncc([N+](=O)[O-])s1 | 1.3
14 | c1ccc2c(c1)CCc1ccccc1-2 | 4.52
15 | CC(=O)COc1ccccc1 | 1.04
16 | CN(C)C(CSS(=O)(=O)c1ccccc1)CSS(=O)(=O)c1ccccc1 | 3.36
17 | CN(C(=S)c1ccccc1)c1ccccc1 | 3.12
18 | c1ccc(Cn2cccn2)cc1 | 1.78
19 | O=C1C=C(NCCO)C(=O)c2ccccc21 | 1.23
20 | CC(=O)C1CC1 | 0.49
21 | COC(=O)c1ccc(Cl)cc1 | 2.76
22 | CC(C)c1ccc(O)cc1 | 2.9
23 | O/N=C/c1ccc(Cl)cc1 | 2.67
24 | Cc1ccc(C)[nH]1 | 1.47
25 | Cc1cc(C)[nH]n1 | 1.01
26 | O=C(O)Cn1ccnc1[N+](=O)[O-] | -0.34

Row | Compound | logP
27 | CC(=O)Nc1nccs1 | 0.76
28 | CNC=O | -0.97
29 | CC(Cl)[N+](=O)[O-] (stereo not drawn) | 1.1
30 | Cc1ncc[nH]1 | 0.24
31 | N#Cc1cccc(C#N)c1 | 0.8
32 | O=S(=O)(CCl)c1ccccc1 | 1.24
33 | C1=c2ccc3cccc4ccc(c2c43)CC1 | 4.92
34 | CCOc1ccccc1OCC | 2.42
35 | Cc1[nH]oc(=O)c1/N=N/c1ccccc1Cl | 2.6
36 | CC(C)C(C)OCc1cn(C)c(C=NO)n1 (stereo not drawn) | 2.53
37 | CN1CCCC1 | 0.92
38 | CCCC(=O)OC | 1.29
39 | CNCCN(C)C | -0.2
40 | CC(=O)OC[C@H]1O[C@@H](n2ncc(=O)[nH]c2=O)[C@H](OC(C)=O)[C@@H]1OC(C)=O | -0.2
41 | O=C(O)Cc1ccccc1Nc1c(F)cccc1F | 3.57
42 | NS(=O)(=O)Cc1ccccc1 | 0.13
43 | Fc1cc(F)c(F)c(F)c1F | 2.53
44 | c1cnc2nc[nH]c2c1 | 0.3
45 | Nc1ccc(Cl)c([N+](=O)[O-])c1 | 2.06
46 | O=C(NCCN1CCC(O)(c2ccc(Cl)cc2)CC1)c1ccc(F)cc1 | 2.85
47 | Clc1cc(Cl)nc(-c2ccccc2)n1 | 4.17
48 | CCCCCCCCn1cc(C)c(=O)[nH]c1=O | 3.04
49 | CC(C(=O)O)c1ccc(N2CC3CCCCC3C2=O)cc1 (stereo not drawn) | 3.07
50 | Cc1c(Cl)cc(-c2ccc(=O)[nH]n2)cc1Cl | 3.2
51 | ICCCI | 3.02
52 | O=C(CCBr)N1CCN(C(=O)CCBr)CC1 | 0.42

Row | Compound | logP
53 | Cc1c(COC(=O)[C@@H]2[C@H](/C=C(\Cl)C(F)(F)F)C2(C)C)cccc1-c1ccccc1 | 6
54 | CNC1=CC(=O)c2ccccc2C1=O | 1.74
55 | Cc1ccc2c(c1)nc(N)n2C | 1.47
56 | NC(=O)CCNC(=O)C(F)(F)Cn1cncc1[N+](=O)[O-] | -0.95
57 | CCON=C(OC(=O)c1ccccc1)c1c(OC)ccc(Cl)c1OC | 2.4
58 | O=C1C(F)=C(N2CC2)C(=O)C(N2CC2)=C1N1CC1 | 0.14
59 | O=C1CCc2cccc3c2N1CC3 | 1.6
60 | CC1=C(/C=C/C(C)=C/C=C/C(C)=C/CO)C(C)(C)CCC1 | 5.68
61 | CCCSP(=O)(OCC)SCCC | 3.59
62 | CN(C)c1ccc2c(c1)C(=O)N(S(C)(=O)=O)C2=O | 1.65
63 | CC(C(=O)O)c1ccc(N2C(=O)C3C4C=CCC3(C4)C2=O)cc1 (stereo not drawn) | 2.31
64 | C=CCC | 2.4
65 | CCCCOCN(C(=O)CCl)c1c(CC)cccc1CC | 4.5
66 | c1ccc(-c2ccncn2)cc1 | 1.92
67 | ON=Cc1nnc(-c2ccccc2)o1 | 2.03
68 | NNP(=O)(Oc1ccccc1)Oc1ccccc1 | 1.51
69 | O=c1c2ccccc2oc2ccccc12 | 3.39
70 | COC=O | 0.03
71 | O=[N+]([O-])c1ccc(/C=N/O)cc1 | 1.95
72 | CCCn1cnc2c(NC(C)=O)ncnc21 | 0.09
73 | COC(=O)C(=O)OC | -0.17
74 | NC(=O)OCCc1cccc2c1C(=O)C(Br)=C(N1CC1)C2=O | 0.68
75 | CC1C=CCN1 (stereo not drawn) | 1.87
76 | O=C1C(Cl)C(CCl)CN1c1cccc(C(F)(F)F)c1 (stereo not drawn) | 3.36
77 | CC(C)(C)NCC(O)COCCCc1ccccc1 (stereo not drawn) | 2.58
78 | CC1CN1C1=CC(=O)C(N2CC2C)=CC1=O (stereo not drawn) | 1.07

Row | Compound | logP
79 | CN(C)O | -1.15
80 | CC(C)Nc1nc(N)nc(SC(F)F)n1 | 2.68
81 | C[C@H](NC(=O)N(CCCl)N=O)C(=O)O | 0.78
82 | O=[N+]([O-])c1cc2[nH]c(C(F)(F)F)nc2cc1Cl | 3.21
83 | CCC(=O)OC | 0.82
84 | O=C1C(=O)c2ccccc2-c2ccccc21 | 2.52
85 | Nc1ccccc1SSc1ccccc1N | 3.05
86 | Cc1ccccc1COC1CC2(C(C)C)CCC1(C)O2 (stereo not drawn) | 3.83
87 | Cc1cccc(OCc2ccccc2)n1 | 3.43
88 | S=C(N/N=C/c1ccc[nH]1)Nc1ccccc1 | 3.73
89 | CCCCNc1ccc(C(=O)OCCOCCOCCOCCOCCOCCOCCOCCOCCOC)cc1 | 2.45
90 | CS(=O)(=O)CC#N | -1.42
91 | N#CC(CCc1ccc(Cl)cc1)(Cn1cncn1)c1ccccc1 (stereo not drawn) | 3.23
92 | COC(=O)C(C)(C)C | 1.83
93 | O=C(O)Cc1csc(-c2ccc(Cl)cc2)n1 | 3.29
94 | CCC1=C(N2CC2)C(=O)C(C)=C(N2CC2)C1=O | 1.35
95 | S=C(N/N=C/c1ccco1)Nc1ccccc1 | 3.13
96 | CCOC(=O)CCCOc1ccc(Cl)cc1C | 4.26
97 | O/N=C/c1ccncc1 | 0.77
98 | CC(C)c1ccc(C(O)C(CO)NC(=O)C(Cl)Cl)cc1 (stereo not drawn) | 2.24
99 | Cn1c(N)nc2cc(C#N)ccc21 | 1.11
100 | O=C1c2ccccc2C(=O)N1c1ccccc1 | 2.4
101 | CC1NC(=O)C(CC(=O)N[C@@H](Cc2c[nH]c3ccccc23)C(=O)N[C@@H](Cc2ccccc2)C(=O)N(C)Cc2ccccc2)NC1=O (stereo partly drawn) | 3.18
102 | C1=COCCC1 | 0.69
103 | Clc1cc(Cl)c2cc(Cl)ccc2c1 | 5.35
104 | N#Cc1ccc(C#N)cc1 | 0.93

Same assay, conditions: pH 1.0

Row | Compound | logD
105 | CC(C)(CCC(=O)O)C(=O)O | 0.67
106 | O=C(O)C1CC1 | 0.63
107 | CC1CC(C(=O)O)=C(C(=O)O)C(C)C1 (stereo not drawn) | 1.53
108 | CCC(C)C#N (stereo not drawn) | 1.1
109 | CC(C)CC#N | 1.07
110 | O=C(O)c1cc2ccccc2o1 | 2.41
111 | CC(C)(C)C#N | 1.08
112 | O=C(O)/C=C/c1ccc([N+](=O)[O-])cc1 | 2.12

Same assay, conditions: pH 2.1

Row | Compound | logD
113 | CC(=O)c1cccc(S(N)(=O)=O)c1 | 0.25

Same assay, conditions: pH 3.5

Row | Compound | logD
114 | C1CCC(Cc2nnn[nH]2)CC1 | 1.59

Same assay, conditions: pH 3.9

Row | Compound | logD
115 | COC(=O)Nc1cccc(OC(=O)Nc2cccc(C)c2)c1 | 3.59

Same assay, conditions: pH 4.0

Row | Compound | logD
116 | O=[N+]([O-])c1ccc(NN=C(C(F)(F)F)C(F)(F)F)c(C(F)(F)F)c1 | 4.6
117 | CC(C)=NNc1c([N+](=O)[O-])cc(C(F)(F)F)cc1[N+](=O)[O-] | 3.2
118 | CC(=NNc1c([N+](=O)[O-])cc(C(F)(F)F)cc1[N+](=O)[O-])C(F)(F)F | 3

Same assay, conditions: pH 7.0

Row | Compound | logD
119 | CC1(C)COC(Cn2cncn2)(c2ccc(-n3ccnc3)cc2Cl)OC1 | 2.26
120 | COc1c2c(cc3c1-c1ccc(OC)c(=O)cc1C(NC(C)=O)CC3)OCO2 (stereo not drawn) | 1.6
121 | Nc1nc(=O)n([C@H]2CC[C@@H](CO)O2)cc1I | -0.31
122 | CCOC(=O)N[C@H]1CCc2cc(OC)c(OC)c(OC)c2-c2ccc(OC)c(=O)cc21 | 1.3
123 | COc1cccc2c1C(=O)c1c(O)c3c(c(O)c1C2=O)CC(O)(C(=O)CO)CC3OC1CC(O)C(O)C(C)O1 (stereo not drawn) | 1.75
124 | CC1(CO)COC(Cn2cncn2)(c2ccc(Cl)cc2Cl)OC1 (stereo not drawn) | 2.1

Same assay, conditions: pH 7.4

Row | Compound | logD
125 | CC(C)Cn1c(=O)n(C)c(=O)c2[nH]c(CCN3CCN(C(c4ccc(F)cc4)c4ccc(F)cc4)CC3)nc21 | 4.16
126 | CCCCCc1ccc(N)cc1 | 3.39
127 | CCN(CCO)c1ccccc1 | 2.1
128 | O=C1CN=C(c2ccccc2F)c2cc(Br)ccc2N1 | 2.98
129 | Nc1ccc2nc3ccccn3c2n1 | 1.38
130 | CC(C)(C)c1ccc(N)cc1 | 2.7
131 | Cc1cc([N+](=O)[O-])cc2c1NC(=O)CN=C2c1ccccc1 | 2.33
132 | Cc1cc(CCCCCCCOc2ccc(C3=NCCO3)cc2)on1 | 4.79
133 | CCc1nc(C)c([N+](=O)[O-])[nH]1 | 0.76
134 | Cc1ccnc2ccccc12 | 2.61
135 | Nc1ccc2c(n1)[nH]c1ccccc12 | 2.6
136 | CCc1cccc2cccnc12 | 2.93
137 | Fc1cccc2cccnc12 | 2.19
138 | Nc1ccc(Sc2ccc(N)cc2)cc1 | 2.18
139 | CCCc1ccc([N+](=O)[O-])cc1 | 3.45
140 | CCc1ncc([N+](=O)[O-])n1C | 0.62
141 | O=C(Cn1ccnc1[N+](=O)[O-])NCc1ccccc1 | 0.85
142 | Cc1nc([N+](=O)[O-])cn1COCCS(C)(=O)=O | -0.84
143 | COC(=S)NCCn1c([N+](=O)[O-])cnc1C | 1.09
144 | Cc1ncc([N+](=O)[O-])n1CCNC(=O)OC(C)C | 0.88
145 | CNC(=O)c1cccc2cccnc12 | 1.87
146 | CC(C)c1ccc([N+](=O)[O-])cc1 | 3.45

Same assay, conditions: pH 11.0

Row | Compound | logD
147 | C[C@@H]([C@H](O)c1ccccc1)N(C)C | 1.7

Same assay, conditions: pH 13.0

Row | Compound | logD
148 | CNCCNC | -0.62
149 | OCCNCc1ccccc1 | 0.79
150 | Cc1cc(C)c(N(C)C)c(C)c1 | 4.44
151 | CCc1cc(Cc2cnc(N)nc2N)cc(CC)c1N | 1.82
152 | CC(C)(C)N(CC(O)COc1ccccc1)CC(O)COc1ccccc1 (stereo not drawn) | 3.99
153 | CCOC(OCC)OCC | 1.2
154 | CC(C)NC(C)(C)C | 1.56
155 | CC(C)CN(CC(O)COc1ccccc1)CC(O)COc1ccccc1 (stereo not drawn) | 3.46
156 | CC(C)(C)NCCO | 0.41
157 | C[C@@H]1CCC[C@H](C)N1 | 1.53
158 | CC1(C)CCCC(C)(C)N1 | 2.15
